Structures are written as SMILES.

The results in this text go back to ChEMBL document CHEMBL1275430, “Impact of mycophenolic acid on the functionality of human polymorphonuclear neutrophils and dendritic cells during interaction with Aspergillus fumigatus” (2008).

What all share (assay type): functional
Test [1] is described as follows: Induction of IL-2 expression in […] dendritic cell co-cultured with Aspergillus fumigatus germ tube at 10 uM after 7 days by RT-PCR.
A short description of test [2]: Induction of TNF-alpha expression in […] dendritic cell co-cultured with Aspergillus fumigatus germ tube at 10 uM after 7 days by RT-PCR.
The nature of test [3]: Inhibition of Aspergillus fumigatus-mediated dendritic cell maturation assessed as decreased CD86 expression at 10 uM.
Test [4] is described as follows: Inhibition of Aspergillus fumigatus-mediated dendritic cell maturation assessed as decreased CD83 expression at 10 uM.
Test [5] in a line: Inhibition of Aspergillus fumigatus-mediated dendritic cell maturation assessed as decreased CD40 expression at 10 uM.
The nature of test [6]: Inhibition of Aspergillus fumigatus-mediated dendritic cell maturation assessed as decreased CD1a expression at 10 uM.
In test [7] the test system is Aspergillus fumigatus. The test is described as follows: Effect on polymorphonuclear neutrophil killing of Aspergillus fumigatus assessed as survival rate of fungi at 10 ug/ml (reference value: 53% +/- 11%).
A short description of test [8]: Induction of oxidative burst of polymorphonuclear neutrophil co-cultured with Aspergillus fumigatus germlings at 10 uM after 120 minutes relative to untreated control.
A short description of test [9]: Inhibition of Aspergillus fumigatus-mediated dendritic cell maturation assessed as decreased CD80 expression at 10 uM.
A short description of test [10]: Induction of oxidative burst of polymorphonuclear neutrophil co-cultured with Aspergillus fumigatus germlings at 10 uM after 60 minutes relative to untreated control.
Test [11] concerns Aspergillus fumigatus. As to the kind of experiment: Effect on polymorphonuclear neutrophil killing of Aspergillus fumigatus assessed as survival rate of fungi (reference value: 53% +/- 11%).

A word on the inhibition: it is the share of the control response that was lost under treatment. On to `COc1c(C)c2c(c(O)c1C/C=C(\C)CCC(=O)O)C(=O)OC2` [MYCOPHENOLIC ACID], for which the Activity in [1] was 94%; in test [2] it was 52%. Further, the inhibition at 10 µM amounted to 43.8% in [3]; 21.1% in test [4]; 39.3% in test [5]; 68.8% in test [6]; 46.7% in [9]. In addition, the survival at 10 µg/mL in the test with Aspergillus fumigatus [7] came to 57%. Also, the “fold change (FC)” value in test [8] turned out to be 2.8; in test [10], 3.8.

In the case of `CCCCCCCCCCCCCC(=O)O[C@@H]1[C@@H](C)[C@@]2(O)[C@@H](C=C(CO)C[C@]3(O)C(=O)C(C)=C[C@@H]23)[C@@H]2C(C)(C)[C@]12OC(C)=O` [PHORBOL MYRISTATE ACETATE], the Survival in the test with Aspergillus fumigatus [11] was 26%.
